Assay results from patent US7691877B2, “Pharmaceuticals” (priority 2006, dated 2010).

What was measured:
[1] = molecular target: T1, TLR7 receptor (Homo sapiens, UniProt Q9NYK1); assay: PBL/HCV replicon bioassay; assay type: cell-based; conditions: concentration applied to PBL (24 h) giving 50% reduction of HCV replicon levels (luciferase) after transfer of PBL culture medium to Huh-7 replicon cells (48 h)
T1 construct: PBL contain as a subpopulation plasmacytoid dendritic cells which are the natural interferon producing cells; endogenous in cells; host or cells: peripheral blood lymphocytes (PBL), containing plasmacytoid dendritic cells
T1 sequence (Q9NYK1 27-1049): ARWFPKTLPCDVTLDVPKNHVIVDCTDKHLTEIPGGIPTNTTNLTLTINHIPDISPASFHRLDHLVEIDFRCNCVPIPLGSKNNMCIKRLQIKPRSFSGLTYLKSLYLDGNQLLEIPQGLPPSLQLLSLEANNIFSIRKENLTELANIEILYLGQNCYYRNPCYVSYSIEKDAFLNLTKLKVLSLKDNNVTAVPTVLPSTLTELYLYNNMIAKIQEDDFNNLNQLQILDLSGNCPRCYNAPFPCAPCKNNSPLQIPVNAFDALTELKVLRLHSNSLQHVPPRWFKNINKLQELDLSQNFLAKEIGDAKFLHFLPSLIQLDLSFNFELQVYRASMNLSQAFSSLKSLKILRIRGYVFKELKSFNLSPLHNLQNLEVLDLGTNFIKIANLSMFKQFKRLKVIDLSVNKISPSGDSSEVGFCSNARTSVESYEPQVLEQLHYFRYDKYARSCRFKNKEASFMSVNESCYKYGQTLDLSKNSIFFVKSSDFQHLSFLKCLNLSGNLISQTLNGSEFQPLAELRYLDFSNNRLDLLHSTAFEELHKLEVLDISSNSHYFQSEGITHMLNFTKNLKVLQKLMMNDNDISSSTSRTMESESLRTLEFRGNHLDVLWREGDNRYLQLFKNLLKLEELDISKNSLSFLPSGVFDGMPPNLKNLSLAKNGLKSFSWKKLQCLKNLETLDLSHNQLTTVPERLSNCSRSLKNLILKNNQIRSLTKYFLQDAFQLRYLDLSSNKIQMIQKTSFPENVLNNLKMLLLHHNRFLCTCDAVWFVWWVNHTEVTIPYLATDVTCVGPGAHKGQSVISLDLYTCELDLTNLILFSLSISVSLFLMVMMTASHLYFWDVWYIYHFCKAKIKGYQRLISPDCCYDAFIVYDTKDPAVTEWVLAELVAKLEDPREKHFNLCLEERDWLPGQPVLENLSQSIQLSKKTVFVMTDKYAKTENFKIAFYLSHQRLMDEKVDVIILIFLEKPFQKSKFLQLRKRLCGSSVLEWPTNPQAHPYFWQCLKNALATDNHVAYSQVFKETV
Experimental: PBL contain as a subpopulation plasmacytoid dendritic cells which are the natural interferon producing cells during an infection and as such are an excellent model in which to profile interferon inducers. As an extremly sensitive antiviral bioassay, supernatant taken from PBL is assayed for antiviral activity in the HCV replicon system.
The HCV replicon (Huh-5-2[I389luc-ubi-neo-NS3-3′/ET]) is an in vitro model of HCV replication in which the luciferase reporter is incorporated into HCV sequences and stably maintained in the human hepatoma cell line Huh-7. The firefly luciferase reporter is expressed as a luciferase-ubiquitin-neomycin phosphotransferase fusion protein which is cleaved by host proteases to release luciferase. The replicon also contains an internal EMCV IRES, which drives translation of HCV NS3-5B polyprotein, which harbour cell culture adapted mutations to permit high cloning efficiency. […] Firefly luciferase activity is detected using a Bright-Glo™ Luciferase Assay System manufactured by Promega.
An initial 3 fold serial dilution series of compounds in 100% DMSO is prepared from stocks. The dilution series is then further diluted 100 fold with complete RPMI-FCS. The final concentration of DMSO in the assay is thus 0.1% and that of the test compound is 1/1000 in the 100% DMSO dilution series. PBL are prepared seeded at 5×10^5/well/90 μl into the previously prepared compound containing assay plates (96 well clear bottomed TC grade) and incubated for 24 h.
LucUbiNeo HCV replicon cells are seeded at 10^4/well/90 μl. These are incubated for 24 h. After 24 h, 10 μl of medium is transferred from the PBL assay plates to the HCV replicon plates and incubated for a further 48 h.

[2] = tested on: all other known Toll-like Receptors; assay: Selectivity for TLR7 over other Toll-like Receptors
[3] = tested on: MEK, CDK1, CDK2, JNK, MSK, MSK-1, SGK, AMPK, MLCK, CHK-2, PDE3, PDE4 and PDE5; assay: Selectivity for TLR7 over kinases and phosphodiesterase enzymes; assay type: biochemical
[4] = tested on: MAP (mitogen-activated protein kinase); assay: Selectivity for TLR7 over MAP; assay type: biochemical
[5] = tested on: HCV replicon containing cells; assay: Direct response of HCV replicon containing cells to TLR agonists; assay type: cell-based, human; conditions: applied directly to replicon cells, without PBL conditioned medium

SMILES: COC(=O)c1cc2c([nH]c(=O)n2Cc2ccccc2)c(N)n1 [Example 4, 4-Amino-1-benzyl-2-oxo-2,3-dihydro-1H-imidazo[4,5-c]pyridine-6-carboxylic acid methyl ester]
- EC50 [1]: 497 nM

SMILES: COCCn1c(=O)[nH]c2c(N)nc(C(F)(F)F)cc21 [Example 55]
- EC50 [1]: 2000 nM

SMILES: Nc1nc(-c2ccccc2F)cc2c1[nH]c(=O)n2Cc1ccccc1 [Example 22, 4-Amino-1-benzyl-6-(2-fluoro-phenyl)-1,3-dihydro-imidazo[4,5-c]pyridin-2-one]
- EC50 [1]: 450 nM

SMILES: Cc1nc(N)c2[nH]c(=O)n(Cc3ccc(F)cc3)c2c1C [Example 61]
- EC50 [1]: 1680 nM

SMILES: Cc1cc2c([nH]c(=O)n2Cc2ccccc2)c(N)n1 [Example 2, 4-Amino-1-benzyl-6-methyl-1,3-dihydro-imidazo[4,5-c]pyridin-2-one]
- EC50 [1]: 1540 nM
- selectivity for the TLR7 receptor over all other known Toll-like Receptors [2]: selective
- selectivity for the TLR7 receptor over MEK, CDK1, CDK2, JNK, MSK, MSK-1, SGK, AMPK, MLCK, CHK-2, PDE3, PDE4 and PDE5 [3]: selective

SMILES: Nc1nc(-c2ncco2)cc2c1[nH]c(=O)n2Cc1ccccc1 [Example 12, 4-Amino-1-benzyl-6-oxazol-2-yl-1,3-dihydro-imidazo[4,5-c]pyridin-2-one]
- EC50 [1]: 240 nM
- selectivity for the TLR7 receptor over all other known Toll-like Receptors [2]: selective
- selectivity for the TLR7 receptor over MEK, CDK1, CDK2, JNK, MSK, MSK-1, SGK, AMPK, MLCK, CHK-2, PDE3, PDE4 and PDE5 [3]: selective
- selectivity for the TLR7 receptor over MAP (mitogen-activated protein kinase) [4]: selective

SMILES: Nc1nccc2c1[nH]c(=O)n2Cc1ccccc1 [Example 50]
- EC50 [1]: 1970 nM

SMILES: Cc1ccc(Cn2c(=O)[nH]c3c(N)nc(-c4cnco4)cc32)cn1 [Example 78]
- EC50 [1]: 100 nM

SMILES: Nc1nc(C2CC2)cc2c1[nH]c(=O)n2Cc1ccccc1 [Example 1, 4-Amino-1-benzyl-6-cyclopropyl-1,3-dihydro-imidazo[4,5-c]pyridin-2-one]
- EC50 [1]: 933 nM
- selectivity for the TLR7 receptor over all other known Toll-like Receptors [2]: selective
- selectivity for the TLR7 receptor over MEK, CDK1, CDK2, JNK, MSK, MSK-1, SGK, AMPK, MLCK, CHK-2, PDE3, PDE4 and PDE5 [3]: selective

SMILES: Cc1cnn(-c2cc3c([nH]c(=O)n3Cc3ccccc3)c(N)n2)c1 [Example 86]
- EC50 [1]: 550 nM

SMILES: Nc1nc(-c2ncc[nH]2)cc2c1[nH]c(=O)n2Cc1ccccc1 [Example 21, 4-Amino-1-benzyl-6-(1H-imidazol-2-yl)-1,3-dihydro-imidazo[4,5-c]pyridin-2-one]
- EC50 [1]: 215 nM

SMILES: Nc1nc(-c2ccccn2)cc2c1[nH]c(=O)n2Cc1ccccc1 [Example 32]
- EC50 [1]: 1710 nM

SMILES: N#Cc1cc2c([nH]c(=O)n2Cc2ccccc2)c(N)n1 [Example 39]
- EC50 [1]: 2200 nM

SMILES: CCc1coc(-c2cc3c([nH]c(=O)n3Cc3ccc(C)nc3)c(N)n2)n1 [Example 20, 4-Amino-6-(4-ethyl-oxazol-2-yl)-1-(6-methyl-pyridin-3-ylmethyl)-1,3-dihydro-imidazo[4,5-c]pyridin-2-one]
- EC50 [1]: 700 nM

SMILES: Cc1cc2c([nH]c(=O)n2Cc2cccc(F)c2)c(N)n1 [Example 27]
- EC50 [1]: 453 nM

SMILES: Cc1cc2c([nH]c(=O)n2Cc2cccc(C(F)(F)F)c2)c(N)n1 [Example 25]
- EC50 [1]: 1000 nM

SMILES: Nc1nc(C(F)(F)F)cc2c1[nH]c(=O)n2Cc1ccc(Br)cc1 [Example 70]
- EC50 [1]: 656 nM

SMILES: CC(=O)c1cc2c([nH]c(=O)n2Cc2ccccc2)c(N)n1 [Example 36]
- EC50 [1]: 368 nM

SMILES: COCCNc1cc2c([nH]c(=O)n2Cc2ccccc2)c(N)n1 [Example 49]
- EC50 [1]: 2170 nM

SMILES: CC(C)Cn1cnc2c(N)nc3ccccc3c21 [Imiquimod]
- direct response of HCV replicon containing cells to the TLR agonist [5]: do not respond directly

SMILES: Cc1nc(N)c2[nH]c(=O)n(Cc3ccccc3)c2c1C [Example 3, 1-Benzyl-4-amino-6,7-dimethyl-1,3-dihydro-imidazo[4,5-c]Pyridin-2-one]
- EC50 [1]: 266 nM

SMILES: COCc1cc2c([nH]c(=O)n2Cc2ccccc2)c(N)n1 [Example 40]
- EC50 [1]: 427 nM

SMILES: CCc1cc2c([nH]c(=O)n2Cc2ccccc2)c(N)n1 [Example 37]
- EC50 [1]: 786 nM

SMILES: Nc1nc(C(F)(F)F)cc2c1[nH]c(=O)n2Cc1ccc(Cl)nc1 [Example 60]
- EC50 [1]: 445 nM

SMILES: Nc1nc2c(c3c1[nH]c(=O)n3Cc1ccccc1)CCC2 [Example 31]
- EC50 [1]: 3260 nM

SMILES: CCCc1cc2c([nH]c(=O)n2Cc2ccccc2)c(N)n1 [Example 23]
- EC50 [1]: 1080 nM

SMILES: Nc1nc(-n2cccn2)cc2c1[nH]c(=O)n2Cc1ccccc1 [Example 83]
- EC50 [1]: 470 nM

SMILES: Nc1nc(C(F)F)cc2c1[nH]c(=O)n2Cc1ccccc1 [Example 38]
- EC50 [1]: 848 nM

SMILES: Cc1ccc(Cn2c(=O)[nH]c3c(N)nc(-c4ncno4)cc32)cn1 [Example 82]
- EC50 [1]: 127 nM

SMILES: CC(C)c1cc2c([nH]c(=O)n2Cc2ccccc2)c(N)n1 [Example 24]
- EC50 [1]: 1600 nM

SMILES: COCCNCc1cc2c([nH]c(=O)n2Cc2ccccc2)c(N)n1 [Example 34]
- EC50 [1]: 1300 nM

SMILES: COCCOc1cc2c([nH]c(=O)n2Cc2ccccc2)c(N)n1 [Example 17, 4-Amino-1-benzyl-6-(2-methoxy-ethoxy)-1,3-dihydro-imidazo[4,5-c]pyridin-2-one]
- EC50 [1]: 955 nM

SMILES: Nc1nc(C(F)(F)F)cc2c1[nH]c(=O)n2Cc1ccc(F)cc1 [Example 54]
- EC50 [1]: 302 nM
